Data from article PMC10650955, “α-Aminophosphonate inhibitors of metallo-β-lactamases NDM-1 and VIM-2” (RSC Medicinal Chemistry, 2023).
Where a name gives a salt, the structure may show the parent alone.

Legend:
[1] = molecular target: T1, NDM-1 (Klebsiella pneumoniae, UniProt C7C422); assay: Dose rate inhibition studies for IC50 determination, NDM-1 enzymatic assay; format: biochemical; settings: Enzyme IC50 NDM-1, 10 nM NDM-1, 100 μM ZnCl2, imipenem substrate, inhibitor 0-800 μM, 3 parallel measurements; N.I. = no enzyme inhibitory activity observed
T1 construct: made in house
Experimental: (§1) The […] synthesized compounds 5a–l were tested for their inhibitory activities against NDM-1, VIM-2 (Table 1), and GIM-1 in an in vitro enzymatic assay (ESI ^†).[41] The inhibitory activity was measured using enzyme concentrations of 0.1 nM VIM-2, 10 nM NDM-1 or 1 nM GIM-1, with an excess Zn(II) (100 μM, see Experimental methods), with inhibitor compounds with concentrations from 0 to 800 μM. Each data point was measured in triplicates. […] This is in line with previous reports.[42,43]
(§2) A 100 μl solution with buffer (50 mM HEPES (pH 7.2), 100 μM ZnCl2, 2.5% DMSO), purified enzyme (0.1 nM VIM-2, 10 nM NDM-1 or 1 nM GIM-1) and 800–0 μM inhibitor was incubated in a 96 well plate at 25 °C for 5 min. In addition, the enzyme buffer contained 400 μg ml^−1 bovine serum albumin (BSA) to prevent protein unfolding and loss of activity due to low concentrations.[67,68] 100 μM of the reporter substrate nitrocefin (VIM-2, GIM-1) or imipenem (NDM-1) was added to the enzyme–inhibitor solution and the increase in absorbance at 482 nm (nitrocefin) or 300 nm (imipenem) was recorded on a Spectramax M4 spectrophotometer (Molecular Devices). Each data point was performed in triplicates and the initial velocity for each inhibitor concentration was analyzed by a log [inhibitor] vs. response curve fitting to calculate IC50 in GraphPad Prism 9.2 software.

[2] = molecular target: T2, 15N-labelled VIM-2 (Escherichia coli, UniProt Q5U7L7); assay: 1H,15N HSQC NMR chemical shift perturbation titration, VIM-2; format: binding; settings: VIM-2 Kd, 0-16 equiv. ligand, pH 7.0, 310 K
T2 construct: made in house
Experimental: (§3) Solution NMR spectroscopy is a powerful tool to assess protein–ligand interactions under close to physiological conditions.[47] We, therefore, performed NMR chemical shift perturbation (CSP, for details, see section S8, ESI ^†) experiments to identify the amino acid residues of NDM-1 and VIM-2 that are involved in inhibitor binding, making use of the previously published protein assignments.[48,49] Titrations were conducted using ^15N-labelled proteins with 0, 0.5, 1, 2, 4, 8, and 16 equiv. of 5 inhibitors for NDM-1 and of 7 inhibitors for VIM-2.
(§4) For the titrations, ^15N-labelled NDM-1 and ^15N-labelled VIM-2 (250 μM), and titrated ligands (0.5 equiv. in 1 μL) were prepared in the same buffer as the protein (20 mM KPO4, 0.1 mM ZnCl2, pH 7.0 with 10% D2O and 2.5% DMSO-d6). ^1H,^15N HSQC spectra were acquired with 128 × 1024 complex points (F1 × F2) and spectral width of 9090 × 2740 Hz on ^15N-labeled NDM-1/VIM-2 and with every titration step up to 1 : 16 ratio between protein : ligand (0, 0.5, 1, 2, 4, 8, and 16 equiv. of ligand). All experiments were recorded on a Bruker 600 MHz spectrometer at 310 K equipped with a 5 mm TCI cryogenic probe. The NMR data were processed on the MestReNova software with the Mnova Binding plugin. The weighted average chemical shift perturbations (CSP) for the backbone amides were calculated from the observed chemical shift differences in the proton and nitrogen dimensions using the equation (chemical shift scaling factors: FH = 1, FN = 0.156) CSP = Δδ1H,15N = [drawing 13] .
(§5) 7. Chemical shift perturbation histograms
(§6) Chemical shift perturbation was calculated according equation (1) 2
(§7) CSP = Δδ(1H,15N) = √(Δδ1H2 + (1⁄R × Δδ15N2) Rscale = 6.5 (1)
(§8) Where Δδ1H is the chemical shift change for proton dimension, Δδ15N is the chemical shift change for nitrogen dimension, Rscale is a
(§9) The chemical shift perturbations (CSP) were classified as significant (SSP) when the observed Δδ(1H,15N) was greater than the population
(§10) mean plus the standard deviation (µ+1σ) – solid line; (µ+2σ) – dashed line, and (µ+3σ) – dashed line.
(§11) Further on, Kd was calculated according: 3
(§12) ([P]+[L]+Kd)− √([P]+[L]+Kd)2−4[P][L]
(§13) ΔδmaxΔδobs = Δδmax 2[P] (2)
(§14) Where Kd is the dissociation constant, [P] and [L] are protein and ligand concentrations, respectively. Δδmax were estimated in
(§15) MestReNova by extrapolation of the obser ved chemical shift differences Δδobs.

[3] = molecular target: T3, VIM-2 (Escherichia coli, UniProt Q5U7L7); assay: Dose rate inhibition studies for IC50 determination, VIM-2 enzymatic assay; format: biochemical; settings: Enzyme IC50 VIM-2, 0.1 nM VIM-2, 100 μM ZnCl2, nitrocefin substrate, inhibitor 0-800 μM, 3 parallel measurements; N.I. = no enzyme inhibitory activity observed
T3 construct: made in house
Experimental: as §1, §2

[4] = molecular target: T4, 15N-labelled NDM-1 (Klebsiella pneumoniae, UniProt C7C422); assay: 1H,15N HSQC NMR chemical shift perturbation titration, NDM-1; format: binding
T4 construct: made in house
Experimental: as §3, §4, §5, §6, §7, §8, §9, §10, §11, §12, §13, §14, §15

[5] = Estimated binding constant (Kd), residue 070F, Table S5, per-residue fit, NDM-1 070F
[6] = Estimated binding constant (Kd), residue 108E, Table S5, per-residue fit, NDM-1 108E
[7] = Estimated binding constant (Kd), residue 119T, Table S5, per-residue fit, NDM-1 119T
[8] = Estimated binding constant (Kd), residue 124D, Table S5, per-residue fit, NDM-1 124D
[9] = Estimated binding constant (Kd), residue 127G, Table S5, per-residue fit, NDM-1 127G
[10] = Estimated binding constant (Kd), residue 152E, Table S5, per-residue fit, NDM-1 152E
[11] = Estimated binding constant (Kd), residue 159H, Table S5, per-residue fit, NDM-1 159H
[12] = Estimated binding constant (Kd), residue 160S, Table S5, per-residue fit, NDM-1 160S
[13] = Estimated binding constant (Kd), residue 194I, Table S5, per-residue fit, NDM-1 194I
[14] = Estimated binding constant (Kd), residue 197G, Table S5, per-residue fit, NDM-1 197G
[15] = Estimated binding constant (Kd), residue 205F, Table S5, per-residue fit, NDM-1 205F
[16] = Estimated binding constant (Kd), residue 206G, Table S5, per-residue fit, NDM-1 206G
[17] = Estimated binding constant (Kd), residue 214K, Table S5, per-residue fit, NDM-1 214K
[18] = Estimated binding constant (Kd), residue 217S, Table S5, per-residue fit, NDM-1 217S
[19] = Estimated binding constant (Kd), residue 228H, Table S5, per-residue fit, NDM-1 228H
[20] = Estimated binding constant (Kd), residue 229Y, Table S5, per-residue fit, NDM-1 229Y
[21] = Estimated binding constant (Kd), residue 230A, Table S5, per-residue fit, NDM-1 230A
[22] = Estimated binding constant (Kd), residue 232S, Table S5, per-residue fit, NDM-1 232S
[23] = Estimated binding constant (Kd), residue 248M, Table S5, per-residue fit, NDM-1 248M
[24] = Estimated binding constant (Kd), residue 249S, Table S5, per-residue fit, NDM-1 249S
[25] = Estimated binding constant (Kd), residue 251S, Table S5, per-residue fit, NDM-1 251S
[26] = Estimated binding constant (Kd), residue 254D, Table S5, per-residue fit, NDM-1 254D
[27] = Estimated binding constant (Kd), residue 255S, Table S5, per-residue fit, NDM-1 255S
[28] = NDM-1 Kd, NMR chemical shift perturbation, 0-16 equiv. ligand, pH 7.0, 310 K

T4 sequence (C7C422 29-270 limits assumed): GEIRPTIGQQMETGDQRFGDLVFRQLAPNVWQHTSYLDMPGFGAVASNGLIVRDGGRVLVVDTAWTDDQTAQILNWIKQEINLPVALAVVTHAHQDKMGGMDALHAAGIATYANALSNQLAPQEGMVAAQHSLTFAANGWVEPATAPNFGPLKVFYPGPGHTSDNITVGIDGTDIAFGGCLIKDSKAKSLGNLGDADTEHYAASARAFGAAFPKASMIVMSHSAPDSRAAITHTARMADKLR
T1 sequence (C7C422 29-270 limits assumed): as above

| Structure (SMILES) | IC50 [1] | Kd [2] | IC50 [3] | Kd [4, 5] | Kd [4, 6] | Kd [4, 7] | Kd [4, 8] | Kd [4, 9] | Kd [4, 10] | Kd [4, 11] | Kd [4, 12] | Kd [4, 13] | Kd [4, 14] | Kd [4, 15] | Kd [4, 16] | Kd [4, 17] | Kd [4, 18] | Kd [4, 19] | Kd [4, 20] | Kd [4, 21] | also measured |
| --- | --- | --- | --- | --- | --- | --- | --- | --- | --- | --- | --- | --- | --- | --- | --- | --- | --- | --- | --- | --- | --- |
| O=C(Cc1cccs1)NC(C1CCCCN1)P(=O)(O)O (stereo not drawn) [Compound 5i-2, (Piperidin-2-yl(2-(thiophen-2-yl)acetamido)methyl)phos-phonic acid hydrochloride] | 271 ± 34 µM | 1.1 ± 0.1 mM | 328 ± 116 µM | 4.9 mM | 2.03 mM | 26.4 mM | 14.1 mM | 1.76 mM | 1.18 mM | 8.3 mM | 17.6 mM | 2.49 mM | 15.2 mM | 6.84 mM | 6.81 mM | 0.78 mM | 16.4 mM | 10.1 mM | 2.3 mM | 2.71 mM | Kd ([4]; Estimated binding constant (Kd), residue 211K, Table S5, per-residue fit, NDM-1 211K): 17.1 mM; Kd [4, 22]: 5.57 mM; Kd [4, 23]: 2.58 mM; Kd [4, 24]: 8.45 mM; Kd [4, 25]: 3.38 mM; Kd [4, 26]: 5.01 mM; Kd [4, 27]: 1.66 mM; Kd ([4]; Estimated binding constant (Kd), residue 263A_266A, Table S5, per-residue fit, NDM-1 263A_266A): 0.69 mM; Kd [4, 28]: 1.4 ± 0.1 mM |
| O=C(Cc1ccsc1)NC(C1CCCCN1)P(=O)(O)O (stereo not drawn) [Compound 5j-1, (Piperidin-2-yl(2-(thiophen-3-yl)acetamido)methyl)phos-phonic acid hydrochloride] | 506 ± 333 µM | 0.9 ± 0.1 mM | 319 ± 69 µM | 2.54 mM | 3.54 mM | 7.97 mM | 12.4 mM | 12.4 mM | 32.9 mM | 8.39 mM | 15.7 mM | 6.1 mM | 3.05 mM | 8.41 mM | 7.72 mM | 1.96 mM | 8.15 mM | 4.94 mM | 1.31 mM | 8.81 mM | Kd ([4]; Estimated binding constant (Kd), residue 091T, Table S5, per-residue fit, NDM-1 091T): 2.11 mM; Kd ([4]; Estimated binding constant (Kd), residue 133H_225D, Table S5, per-residue fit, NDM-1 133H_225D): 1.42 mM; Kd ([4]; Estimated binding constant (Kd), residue 149A, Table S5, per-residue fit, NDM-1 149A): 3.18 mM; Kd ([4]; Estimated binding constant (Kd), residue 188G, Table S5, per-residue fit, NDM-1 188G): 6.63 mM; Kd [4, 22]: 21.3 mM; Kd [4, 23]: 8.64 mM; Kd [4, 24]: 34 mM; Kd [4, 25]: 12.3 mM; Kd [4, 26]: 9.29 mM; Kd [4, 27]: 18.6 mM; Kd [4, 28]: 2.2 ± 0.2 mM |
